In patent US20230172901A1, “COMPOSITIONS AND METHODS FOR THE PROPHYLAXIS AND TREATMENT OF FIBROTIC AND INFLAMMATORY CONDITIONS” (GRETALS AUSTRALIA PTY LTD, priority 2020, published 2023):
Entries after “also recorded” stand apart in the source; their conditions may differ.

What was measured:
Assay type in all cases: in vivo
[1] = test system: sheep model for pulmonary fibrosis, bleomycin-injured lung segments; assay: Example 2: bronchoalveolar lavage (BAL) inflammatory cell counts
Excerpt: (§1) In this study, a total of 10 sheep were used. Fibrosis in two lung segments of each sheep in a similar manner as performed in Example 1 herein. Using this procedure (as detailed further below) the fibrosis was confined to small, isolated regions in the lungs leaving the remaining 90-95% of the healthy unaffected lungs to undertake normal respiratory function.
(§2) All sheep (n=10) in the study were challenged with 2 single doses of bleomycin (3 units) per lung segment, a fortnight apart and the animals were kept for a little over 5 weeks after the final bleomycin dose. Bleomycin is a well-known agent for inducing fibrosis in the lungs. The administration procedure involves inserting a bronchoscope into lung segments in the right and left lung, and then slowly infusing the bleomycin into two segments as shown in FIG. 2 via the bronchoscope biopsy port.
(§3) In the study detailed in Example 1 herein, the dose-rate of pinocembrin was 7 mg pinocembrin per sheep, per week.
(§4) For control purposes the lung segment in the opposite lung was used as a bleomycin-positive, without drug, control, as indicated in FIG. 1. The bioactive molecules in vehicle, were delivered as 5 ml infusions through the biopsy port of the bronchoscope. Note that to nullify any small differences (e.g. physiological or anatomical etc.) between the left and right lungs, the infusions of pinocembrin were randomized between the left and right caudal lung segments. Half the animals (5 sheep) received pinocembrin to the right caudal lung segments, while the other 5 sheep received pinocembrin to the left caudal lung segments. The right medial lung segment was left untreated and used for healthy lung control tissue which was sampled at autopsy (FIG. 2).
For each of the bronchoalveolar (BAL) samplings at the timepoints listed in FIG. 1, the endoscope was manipulated into a specific lung-segment for sampling, usually passing through about 3-4 airway branches. For BAL sampling, 10 ml of sterile saline was infused through the biopsy port of the endoscope into the specific lung-segment and then recovered into a syringe through the same port. This procedure recovered between 3 and 5 ml of BAL fluid. The sampling method collects cells for analyses from the small airway and alveolar lumens of the specific lung-segment where the bronchoscope was navigated to. The BAL cells from each segment were centrifuged onto glass slides and stained for differential cell counting of inflammatory cells with Hem-Quik.

[2] = test system: sheep model for pulmonary fibrosis, bleomycin-injured lung segments; assay: Example 2: hydroxyproline assay for collagen content; settings: increase induced by bleomycin
Excerpt: as §1
as §2, with “port. […]” for “port.”
The hydroxyproline assay was used to extrapolate the collagen content and concentration of each segment. Briefly, frozen lung tissues from each segment were lyophilized to dry weight, hydrolyzed in 6M HCl, and assessed for hydroxyproline content by measuring the absorbance of reconstituted samples (in 0.1M HCl) at 558 nm using a Beckman DU-64 spectrophotometer (Beckman Coulter Inc, Brea, Calif.). Hydroxyproline content was determined from a standard curve of trans-L-hydroxy-L-proline (Sigma-Aldrich).). […]

sheep = assay: Example 2: animal health and safety of pinocembrin administration
Procedure: as §3, §4
The sheep were bled at the times indicated in FIG. 1 by sampling 10 ml of blood from the jugular vein into a tube containing heparin. The blood was processed for blood cell count analyses.
Health checks were routinely performed throughout the treatment periods and throughout the trial until euthanasia.

[3] = test system: sheep model for pulmonary fibrosis, bleomycin-injured lung segments; assay: Example 2: CD4+ and CD8+ T cells in lung parenchyma (immunohistochemistry)
Excerpt: as §1, §2, §3
as §4, with “2). […]” for “2).”
Immunohistochemistry was performed on these frozen tissue sections using the indirect immunoperoxidase technique. […] For cell counts, either 200 immunoperoxidase positive cells were counted in a maximum of 20 microscope fields (×400 magnification) using an area-calibrated grid, or a minimum of 20 microscope fields were counted for less frequent counts.

[4] = week 12, vs bleomycin alone without pinocembrin, 4 weekly infusions of 7 mg, n=10 sheep
[5] = pinocembrin treatment period, 10 sheep
[6] = throughout the pinocembrin treatment period, 10 sheep
[7] = week 12 post-mortem, vs bleomycin alone, 4 weekly infusions of 7 mg, n=10 sheep

Q: With `O=C1CC(c2ccccc2)Oc2cc(O)cc(O)c21` (centres unmarked) [pinocembrin, 5,7-Dihydroxy-2-Phenyl-2,3-Dihydro-4H-Chromen-4-One] as the compound, how does the “sheep with lower inflammatory cell numbers in BAL fluid” value ([1]; individual sheep data, vs bleomycin without pinocembrin, 10 sheep) read?
A: Nine out of ten

Q: What about the “neutrophil, % of total BAL cells” value ([1]; pinocembrin-treated bleomycin-injured lung segments (7.4% in bleomycin without drug)) of the same compound?
A: 3.7%

Q: And the “numbers of inflammatory cells (neutrophils, eosinophils and lymphocytes) in BAL fluid” value [1, 4]?
A: significantly lower; also recorded: significantly reduces

Q: And the “numbers of neutrophils in BAL fluid” value [1, 4]?
A: significantly lower

Q: And the “collagen content (hydroxyproline assay)” value ([2]; 4 weekly treatments of 7 mg, 10 sheep (FIG. 16A))?
A: did not reduce; also recorded: not associated with a significant decrease; also recorded: did not address the increase

Q: What about the “collagen content (hydroxyproline assay)” value ([2]; all 13 sheep of Examples 1 and 2 (FIG. 16B)) of the same compound?
A: does not reduce

Q: And the “untoward health effects (clinical assessment criteria)” value (sheep; all ten sheep undergoing the trial)?
A: no untoward health effects

Q: What about the “differential counts of blood leukocytes” value (sheep; both sampling time points, 10 sheep) of the same compound?
A: within normal ranges

Q: And the “additional pathology or lung damage in pinocembrin exposed segments” value (sheep; lung segment exposed to pinocembrin, post-mortem)?
A: no obvious signs of additional pathology or lung damage

Q: And the adverse health events (sheep; [5])?
A: no otherwise adverse health events

Q: And the weight gain (sheep; [5])?
A: expected normal range

Q: What about the core temperature readings (sheep; [6]) of the same compound?
A: within the normal range

Q: What about the “heart, and respiratory rates” value (sheep; [6]) of the same compound?
A: within normal ranges

Q: And the “animal health during treatment period” value (sheep; week 8 to week 12, 7 mg per sheep per week into one lung segment, 10 sheep)?
A: remained healthy

Q: What about the “sheep with lower CD8+ and CD4+ T cells after pinocembrin treatment” value ([3]; individual sheep data, 10 sheep) of the same compound?
A: All sheep

Q: And the “numbers of CD4+ T cells in the lung parenchyma” value [3, 7]?
A: significantly lower; also recorded: significant reduction

Q: And the “numbers of CD8+ T cells in the lung parenchyma” value [3, 7]?
A: significantly lower; also recorded: significant reduction
